Data published in patent US8084394B2, “Method for the control of harmful micro-organisms and insects in crop protection with means of dipole-electrical air-jet spray-technology, ozonated water and UV-C irradiation” (priority 2003, dated 2011).

Columns and labels:
[1] = stability (half-life) of ozone as gas and in water; format: physicochemical; conditions: new injection technique with inorganic wetting agent; threefold
Description: Ozone is a highly unstable molecule in gaseous form which disintegrated in a short period of time (half-life time ca. 20 minutes) again in oxygen.
With this new injection technique of the extensive mixing of ozone with the spray waters and with the combination of an inorganic wetting agent, the ozone concentration in the dissolved gas bubbles can be up to 17% and has a threefold capacity in the water (up to 1 hour) the fact that ozone gas is transforming to oxygen.
The half-life time of Ozone in water is approximately 2 minutes, in other words the ozone concentration in water is reduced by half every 2 minutes.

[2] = cited from earlier work
microorganisms = conditions: cited from earlier work
[3] = cited from earlier work; remark: listed apart in the source

For `O=[O+][O-]` [Ozone], the “capacity (persistence) of ozone in the water” value [1] is listed as “up to 1 hour”, the “exposition concentration unproblematic for permanent exposure” value [2] is listed as 0.1 mg per m3/air and the “speed of destruction of microorganisms relative to chlorine” value (microorganisms; faster than chlorine) is listed as 3125 times. The “reactivity relative to chlorine” value (microorganisms; more reactive than chlorine) was 51 times, the half-life time ([3]; gaseous form, disintegration to oxygen) was “ca. 20 minutes” and the “half-life time of Ozone in water” value ([3]; in water) was “approximately 2 minutes”.
